The results in this text go back to patent US20080293812A1, “Use of pamoic acid or one of its derivatives, or one of its analogues, for the preparation of a medicament for the treatment of diseases characterised by deposits of amyloid aggregates” (Sigma-Tau Industrie Farmaceutiche Riunite S. P.A.,, priority 2000, published 2008).

In data set [1] the target is T1, previously aggregated βA1-42 peptide (Homo sapiens, UniProt P05067).
T1 construct: βA1-42 peptide (cat. Bachem n° H-1368.0500) at a concentration of 0.22 mM; purchased Bachem H-1368.0500
T1 sequence (P05067 672-713): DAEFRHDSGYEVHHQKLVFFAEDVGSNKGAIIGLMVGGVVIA
Briefly: Dissolution of aggregates of preformed β-amyloid1-42 in fibril form, thioflavin T binding. Format: biochemical. The conditions noted are these: peptide:pamoate ratio 1:8. The method, then: This experiment was conducted in order to assess the antiaggregant capacity of sodium pamoate on previously aggregated βA1-42 peptide, according to the following procedure. βA1-42 peptide was left to aggregate for 48 hours at 37° C. in the conditions described in Example 6. Sodium pamoate was added (peptide:pamoate ratio 1:8).

The target of data set [2] is T2, βA1-42 peptide (Homo sapiens, UniProt P05067).
T2 construct: βA1-42 peptide (1 mg/ml) was dissolved in H2O/CH3CN (1:1)
T2 sequence (P05067 672-713): as above
Briefly: Antiaggregant effect on β-amyloid1-42 peptide, thioflavin T binding, 5 days incubation. Format: biochemical. As for the experimental part:
The antiaggregant effects of sodium pamoate on βA1-42 peptide were evaluated by measuring thioflavin T binding according to the following procedure. βA1-42 peptide (cat. Bachem n° H-1368.0500) at a concentration of 0.22 mM was incubated at 37° C. in Tris buffer 100 mM pH 7.4, alone or in the presence of sodium pamoate, for 5 days. The molar ratios of the peptide to sodium pamoate were generally 1:8, 1:4 and 1:2. The solution was centrifuged at 13000 rpm for 5 minutes and the supernatant was eliminated. The precipitate was washed with 500 μl of H2O and centrifuged at 13000 rpm for 5 minutes. In the precipitate, the aggregate in fibril form was detected with 600 μl of thioflavin T (ThT) 2 μM dissolved in glycine-NaOH buffer 50 mM, pH 9.4. After 5 minutes' incubation 500 μl of samples were transferred to a quartz cuvette and the fluorimetric signal was determined at 420 nm excitation and 480 nm emission in a spectrophotofluorimeter. In these conditions the fluorimetric signal is proportional to the amount of amyloid aggregate (Le Vine, Methods in Enzymology, vol. 309 pp 274-284).

Data set [3] addresses T2, βA1-42 peptide. Briefly: Resistance of β-amyloid1-42 peptide to trypsin digestion, HPLC. Format: biochemical. The method, then: βA1-42 peptide was dissolved with 15 μl of NaOH 0.1 M. The solution was brought to pH 7.4 with 15 μl of TRIS buffer 100 mM to which were added 30 μl of buffer alone or 30 μl of buffer solution containing sodium pamoate. The final concentration of βA1-42 peptide was 0.22 mM, and that of sodium pamoate ranged from 0.055 to 1.76 mM, thus with a βA1-42 peptide:sodium pamoate ratio ranging from 4:1 to 1:8. The samples thus prepared were incubated at 37° C. for 5 days; in these conditions βA1-42 peptide formed aggregates in the form of fibrils modifying its structure from random-coil to β-sheet (Zagorski M. G. et al. 1999 “Methodological and Chemical Factors Affecting Amyloid β Peptide Amyloidogenicity” Methods in Enzymology 309:189-204). After 5 days' incubation, 24 μg of trypsin (Merck) were added to each sample, stirred and centrifuged for 1 minute at 13000 rpm; the samples were then left to incubate at 37° C. for 1 hour. When this period had elapsed, the mixture was centrifuged for 5 minutes at 13000 rpm, eliminating 50 μl of supernatant, and the precipitate was dissolved with 40 μl of HCOOH and 10 μl of H2O containing 0.1% of trifluoroacetic acid (TFA). At this point the sample was ready for quantitative HPLC analysis. The HPLC profile of the sample incubated with sodium pamoate was compared with that obtained with peptide alone, thereby quantifying the βA1-42 peptide.

A further data set concerns the target T3, β-amyloid25-35 peptide (Homo sapiens, UniProt P05067).
T3 construct: aqueous solution of βA25-35 2 mM (cat. Bachem n° H-1192.0001); purchased Bachem H-1192.0001
In words: Antiaggregant effect on β-amyloid25-35 peptide (centrifugation, settled solid). Format: biochemical. The conditions noted are these: sodium pamoate 1 mM, βA25-35 1 mM, phosphate buffer 100 mM pH 5, 24 hours ambient temperature. As for the experimental part: To 250 μl of a solution consisting of sodium pamoate 2 mM and phosphate buffer 200 mM pH 5 were added 250 μl of an aqueous solution of βA25-35 2 mM (cat. Bachem n° H-1192.0001). 500 μl of a solution of sodium pamoate 1 mM, βA25-35 1 mM and phosphate buffer 100 mM pH 5 were thus obtained. The same process was carried out for the control sample where sodium pamoate was not present. After 24 hours at ambient temperature, the sample and control were centrifuged at 12000 rpm for 20 minutes, separating the settled solids from the supernatants. To the settled solids were added 250 μL of water. After 3 hours at ambient temperature the samples were centrifuged again at a 12000 rpm for 20 minutes.

Data set [4] has as its system primary cortical neuronal cultures. In words: Inhibition of neurotoxicity induced by β-amyloid25-35 in primary neuronal cultures. Format: cell-based, rat. As for the experimental part: To verify the potential neuroprotective activity of sodium pamoate, primary cortical neuronal cultures obtained by microdissection of rat foetal brain at day 16-18 of gestation were used. The cerebral tissue was cultivated in the presence of foetal calf serum and the glial proliferation was inhibited by adding to the incubation medium the antimitotic agent cytosine arabinoside on days 3 and 5 (Andreoni et al. 1997 Exp. Neurology 148:281-287). The cell cultures were exposed to βA25-35 peptide for 5-7 days in the presence or absence of sodium pamoate. The neuroprotective action was evaluated in conditions of neurotoxicity induced by kainic acid to verify the specificity of action of sodium pamoate and its effective antiaggregant activity against the neurotoxic agent. The ability of sodium pamoate to protect the cells against degeneration was also evaluated in neuronal cells cultured in the absence of foetal calf serum in the culture medium. In this case, 24 hours after seeding, the medium was replaced with one without serum containing glutamine, insulin, transferrin, putrescin, progesterone, sodium selenite and Hepes.
Primary cultures of neurons of the […] were taken from the rat foetal brain on days 16-18 of gestation and cultured in foetal calf serum. On incubation days 3 and 5, glial proliferation was inhibited using cytosine arabinoside as an antimitotic agent.
The cultures were exposed to βA25-35 peptide at concentrations of 25 and 50 μM from the day following seeding for 5 to 7 days.
βA25-35 peptide was added to the cultures together with sodium pamoate which had equimolar concentrations or concentrations lower than those of the peptide itself.
The protection against neurotoxicity was evaluated using the colorimetric method and densitometric analysis with an image analyser.

The subject of the next data set is cerebellar granules. In words: Apoptosis of cerebellar granules induced by K+ deprivation. Format: cell-based, rat. The following applies: concentration of 10 μM. As for the experimental part: Granules isolated from cerebellum of 8-day-old rats are differentiated biochemically and morphologically in approximately one week, becoming morphologically mature and with a glutamatergic interneuron phenotype (Gallo et al. 1982 PNAS 79:7919-7923). On depriving the culture medium of serum and reducing the extracellular concentration of potassium ions (25 mM) to the extent of bringing it down to a non-depolarising condition (5 mM), cell death by apoptosis is obtained in approximately 24 hours.
This experimental model made it possible to obtain a “self-fuelling” βA production system where neuronal apoptosis of the cerebellar granules brought about changes in the processing of the amyloid precursor APP, of such a nature as to favour the course of amyloidogenic metabolism. The increase in βA levels, in turn, favours programmed cell death. In this experimental setting, the potential efficacy of the study substances was measured in terms of cell survival at given times (24, 48 and 72 hours) after the reduction of KCl in the medium.
In primary cultures of cerebellar granules of 8-day-old rats, maintained in a culture medium containing KCl 25 mM, the cells were labelled with ^35S-methionine after 6 days in culture. […]
The protection against toxicity was assessed in terms of cell viability at 24, 48 and 72 hours.

Data set [5] deals with T2, βA1-42 peptide. In words: βA1-42 polymerization, Thioflavina T binding assay in 96 well plates. Format: biochemical. The conditions noted are these: concentrations between 0.8 and 100 μM, overnight at 37° C.; read-out: DE50 (the source's name). The method, then:
The ST1641, ST1722, ST1859, ST1745, ST1800, ST1913 capability to counteract βA1-42 polymerization was evaluated using the Thioflavina “T” binding assay with the following procedure (M. A. Findeis, S. M. Molineaux; Methods in Enzymology 309, 487-488 (1999)): βA1-42 peptide (1 mg/ml) was dissolved in H2O/CH3CN (1:1), lyophilized, solubilized in DMSO+PBS and incubated at 37° C. for 8 days. The peptide was then sonicated and dissolved in PBS (1:5). 96 well plates were prepared with a solution of βA1-42 (40 μl/well) and ST testing compounds (50 μl/well, at concentrations between 0.8 and 100 μM). 50 μl of not aggregated βA1-42 was added after 15 minutes to each well and the plates were incubated overnight at 37° C. with agitation. 200 μl of a reaction mixture containing Thioflavina “T” (10 μM) and Na2HPO4×2H2O (50 μM) solution (pH 6.5) was then added to each well. The fluorescence was measured at 450 nm of excitation and 482 nm of emission with a 96 well fluorimetric plate reader within 60 seconds. At this experimental conditions fluorimetric measures were related to the amount of βA1-42 polymerized peptide.

A short description of data set [6]: Capability to cross in vivo the blood brain barrier, 14C-labelled compound. Also noted: species or system rats. The conditions noted are these: i.v. The method, then: ST1859 inhibited “in vitro” the beta amyloid aggregation and to test its permeability through the intact blood-brain barrier, ST1859, labelled with ^14C(S. A. 50 μCi/mM), was injected i.v. into normal rats at the dose of 18 μCi/rat. The brain and blood were up-taken 30′ after the injection, the blood was then centrifuged (3000 RPM×15 min) and serum obtained was diluted 1:20 with water while brain tissue was homogenized 1:20 w/v in water. To each sample was then added 4 ml of scintillation liquid for aqueous samples The amount of radioactivity was counted with an automatic β-counter (Packard 4600). Data reported in DPM (table 1) were normalized vs. weight or volume of each sample.

[7] abbreviates: 18 μCi/rat, 30′ after the injection, mean.

For the compound `O=C(O)c1cc2ccccc2c(Cc2c([O-])c(C(=O)O)cc3ccccc23)c1[O-].[Na+].[Na+]` [ST1641, sodium pamoate], the “activity in reducing thioflavin T binding” value in data set [1] (preformed aggregates) is “extremely active”. Besides, in data set [1] (βA1-42 aggregated 48 hours at 37° C.), the “reduction in fluorescence as compared to controls” value came out at 70%. Also, on βA1-42 peptide [2] (from 1 to 5 days' incubation), the “efficacy in reducing thioflavin T binding as a function of incubation time” value is listed as “progressive increase in efficacy”. The “reduction in the formation of βA1-42 aggregates in the form of fibrils as compared to controls” value at βA1-42 peptide [2] (βA1-42 0.22 mM, 37° C., 5 days, peptide:pamoate 1:8, 1:4, 1:2, dose-dependent) is reported as at most 70%. Further, the “increase of trypsin hydrolysis of βA1-42” value at βA1-42 peptide [3] (highest dose, peptide:pamoate ratio 1:8) is “more than 50%”; on βA1-42 peptide [3] (lowest dose, peptide:pamoate ratio 1:4), “more than 40%”. Moreover, the “inhibition of aggregation of βA25-35 peptide in fibrils” value on β-amyloid25-35 peptide was “complete inhibition”. In addition, in data set [4], the “protection against the toxicity induced by βA25-35” value was “complete protection”. In addition, the percentage survival in data set [4] (Sodium pamoate 25 μM + βA25-35 50 μM) was 100 % S; in data set [4] (Sodium pamoate 25 μM alone) it was 88 % S. For the same compound, the “protection against the damage induced by amyloid forming during the apoptotic process” value with cerebellar granules is 89%. The EC50 on βA1-42 peptide [5] turned out to be 38.2 µM.

As to `CC(=O)O[C@H](CC(=O)Oc1c(C(=O)O)cc2ccccc2c1Cc1c(O)c(C(=O)O)cc2ccccc12)C[N+](C)(C)C` [ST1722, (2R)-2-(acetyloxy)-4-({3-carboxy-1-[(3-carboxy-2-hydroxy-1-naphthyl)methyl]-2-naphthyl}oxy)-N,N,N-trimethyl-4-oxo-1-butanaminium chloride], on βA1-42 peptide [5], the EC50 is 90.3 µM.

Turning to `CC(=O)O[C@H](CC(=O)Oc1ccc2ccccc2c1Cc1c(O)ccc2ccccc12)C[N+](C)(C)C` [ST1745, (2R)-2-(acetyloxy)-4-({1-[(2-hydroxy-1-naphthyl)methyl]-2-naphthyl}oxy)-N,N,N-trimethyl-4-oxo-1-butanaminium chloride], the EC50 on βA1-42 peptide [5] came to 8 µM.

As for `CCN(CC)CCOC(=O)c1cc2ccccc2c(Cc2c(O)c(C(=O)OCCN(CC)CC)cc3ccccc23)c1O` [ST1800, 2-({4-[(3-{[2-(diethylammonio)ethoxy]carbonyl}-2-hydroxy-1-naphthyl)methyl]-3-hydroxy-2-naphthoyl}oxy)-N,N-diethylethanaminium dichloride], on βA1-42 peptide [5], the EC50 is above 50 µM.

In the case of `Oc1ccc2ccccc2c1Cc1c(O)ccc2ccccc12` [ST1859, 1,1′-methylene-di(2-naphthol)], in data set [6] (setting [7]), the Brain radioactivity was 35.643 DPM/g, the Serum radioactivity came to 29.776 DPM/ml and the Serum/Brain was 0.833. The “ability to cross the blood brain barrier” value in data set [6] (normal rats) is reported as “able to cross the blood brain barrier”. The EC50 at βA1-42 peptide [5] came to 5.4 µM.

As to `NCC(=O)Oc1ccc2ccccc2c1Cc1c(O)ccc2ccccc12` [ST1913, 2-({1-[(2-hydroxy-1-naphthyl)methyl]-2-naphthyl}oxy)-2-oxoethanaminium chloride], the EC50 at βA1-42 peptide [5] amounted to 7.8 µM.

In data set [4] (βA25-35 50 μM alone), “βA25-35: β-amyloid25-35 peptide (cat. Bachem n° H-1192.0001), used as neurotoxic agent (GSNKGAIIGLM; Amyloid-beta protein 42; UniProt P05067 696-706, looked up, fragment) [reference compound]” came in with a percentage survival of 16 % S.
